US20200024278A1, “COMPOSITION COMPRISING ANTIBIOTIC COMPOUND AND AN HETEROCYCLIC COMPOUND AND THEIR USE IN PREVENTING OR TREATING BACTERIAL INFECTIONS” (MUTABILIS, priority 2016, published 2020)

Tests used:
Experiment in all cases: MIC, broth microdilution (CLSI), substance alone or ATB combined with compound at 4 or 8 μg/mL
Assay type in all cases: cell-based, A. baumannii
ABA 107292 = system: ABA 107292
Summary of the method: (§1)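 CLSI broth microdilution in cation-adjusted Mueller-Hinton broth, 5·10^5 CFU/mL log-phase inoculum, 16-20 h at 35 °C in ambient air. Fosfomycin assays supplemented with 25 μg/ml glucose-6-phosphate.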

ABA 19606 = system: ABA 19606
Summary of the method: as §1

ABA UFR151 = system: ABA UFR151
Summary of the method: as §1

ABA UFR152 = system: ABA UFR152
Summary of the method: as §1

ABA UFR153 = system: ABA UFR153
Summary of the method: as §1

ABA UFR156 = system: ABA UFR156
Summary of the method: as §1

[1] = Acinetobacter baumannii, antibiotic alone, read-out: MIC ATB alone

SMILES: CO/N=C(\C(=O)N[C@@H]1C(=O)N2C(C(=O)[O-])=C(C[N+]3(C)CCCC3)CS[C@H]12)c1csc(N)n1 [FEP, Cefepime]
- MIC (ABA 107292; [1]): 64 µg/mL
- MIC ATB combined with Example 1 @8 μg/ml (ABA 107292; with Example 1 @8 μg/ml): 64 µg/mL
- MIC ATB combined with Example 3 @8 μg/ml (ABA 107292; with Example 3 @8 μg/ml): 8 µg/mL
- MIC ATB combined with Example 6 @8 μg/ml (ABA 107292; with Example 6 @8 μg/ml): 16 µg/mL
- MIC ATB combined with Example 9 @4 μg/ml (ABA 107292; with Example 9 @4 μg/ml): 16 µg/mL
- MIC ATB combined with Example 10 @8 μg/ml (ABA 107292; with Example 10 @8 μg/ml): 16 µg/mL
- MIC ATB combined with Example 11 @8 μg/ml (ABA 107292; with Example 11 @8 μg/ml): 32 µg/mL
- MIC ATB combined with Example 12 @8 μg/ml (ABA 107292; with Example 12 @8 μg/ml): 8 µg/mL
- MIC ATB combined with Example 15 @4 μg/ml (ABA 107292; with Example 15 @4 μg/ml): 32 µg/mL
- MIC (ABA 19606; [1]): 16 µg/mL
- MIC ATB combined with Example 1 @8 μg/ml (ABA 19606; with Example 1 @8 μg/ml): 32 µg/mL
- MIC ATB combined with Example 3 @8 μg/ml (ABA 19606; with Example 3 @8 μg/ml): 8 µg/mL
- MIC ATB combined with Example 6 @8 μg/ml (ABA 19606; with Example 6 @8 μg/ml): <=0.25 μg/mL
- MIC ATB combined with Example 9 @4 μg/ml (ABA 19606; with Example 9 @4 μg/ml): 16 µg/mL
- MIC ATB combined with Example 10 @8 μg/ml (ABA 19606; with Example 10 @8 μg/ml): 8 µg/mL
- MIC ATB combined with Example 11 @8 μg/ml (ABA 19606; with Example 11 @8 μg/ml): 16 µg/mL
- MIC ATB combined with Example 12 @8 μg/ml (ABA 19606; with Example 12 @8 μg/ml): 8 µg/mL
- MIC ATB combined with Example 15 @4 μg/ml (ABA 19606; with Example 15 @4 μg/ml): 16 µg/mL
- MIC (ABA UFR151; [1]): 2 µg/mL
- MIC ATB combined with Example 1 @8 μg/ml (ABA UFR151; with Example 1 @8 μg/ml): 2 µg/mL
- MIC ATB combined with Example 3 @8 μg/ml (ABA UFR151; with Example 3 @8 μg/ml): 1 µg/mL
- MIC ATB combined with Example 6 @8 μg/ml (ABA UFR151; with Example 6 @8 μg/ml): <0.25 µg/mL
- MIC ATB combined with Example 9 @4 μg/ml (ABA UFR151; with Example 9 @4 μg/ml): 2 µg/mL
- MIC ATB combined with Example 10 @8 μg/ml (ABA UFR151; with Example 10 @8 μg/ml): 2 µg/mL
- MIC ATB combined with Example 11 @8 μg/ml (ABA UFR151; with Example 11 @8 μg/ml): 2 µg/mL
- MIC ATB combined with Example 12 @8 μg/ml (ABA UFR151; with Example 12 @8 μg/ml): 2 µg/mL
- MIC ATB combined with Example 15 @4 μg/ml (ABA UFR151; with Example 15 @4 μg/ml): 2 µg/mL
- MIC (ABA UFR152; [1]): 16 µg/mL
- MIC ATB combined with Example 1 @8 μg/ml (ABA UFR152; with Example 1 @8 μg/ml): 16 µg/mL
- MIC ATB combined with Example 3 @8 μg/ml (ABA UFR152; with Example 3 @8 μg/ml): 8 µg/mL
- MIC ATB combined with Example 6 @8 μg/ml (ABA UFR152; with Example 6 @8 μg/ml): 16 µg/mL
- MIC ATB combined with Example 9 @4 μg/ml (ABA UFR152; with Example 9 @4 μg/ml): 16 µg/mL
- MIC ATB combined with Example 10 @8 μg/ml (ABA UFR152; with Example 10 @8 μg/ml): 8 µg/mL
- MIC ATB combined with Example 11 @8 μg/ml (ABA UFR152; with Example 11 @8 μg/ml): 16 µg/mL
- MIC ATB combined with Example 12 @8 μg/ml (ABA UFR152; with Example 12 @8 μg/ml): 8 µg/mL
- MIC ATB combined with Example 15 @4 μg/ml (ABA UFR152; with Example 15 @4 μg/ml): 16 µg/mL
- MIC (ABA UFR153; [1]): > 128 µg/mL
- MIC ATB combined with Example 1 @8 μg/ml (ABA UFR153; with Example 1 @8 μg/ml): 16 µg/mL
- MIC ATB combined with Example 3 @8 μg/ml (ABA UFR153; with Example 3 @8 μg/ml): 8 µg/mL
- MIC ATB combined with Example 6 @8 μg/ml (ABA UFR153; with Example 6 @8 μg/ml): <=0.25 μg/mL
- MIC ATB combined with Example 9 @4 μg/ml (ABA UFR153; with Example 9 @4 μg/ml): 16 µg/mL
- MIC ATB combined with Example 10 @8 μg/ml (ABA UFR153; with Example 10 @8 μg/ml): 8 µg/mL
- MIC ATB combined with Example 11 @8 μg/ml (ABA UFR153; with Example 11 @8 μg/ml): 16 µg/mL
- MIC ATB combined with Example 12 @8 μg/ml (ABA UFR153; with Example 12 @8 μg/ml): 8 µg/mL
- MIC ATB combined with Example 15 @4 μg/ml (ABA UFR153; with Example 15 @4 μg/ml): 16 µg/mL
- MIC (ABA UFR156; [1]): > 128 µg/mL
- MIC ATB combined with Example 1 @8 μg/ml (ABA UFR156; with Example 1 @8 μg/ml): 32 µg/mL
- MIC ATB combined with Example 3 @8 μg/ml (ABA UFR156; with Example 3 @8 μg/ml): 8 µg/mL
- MIC ATB combined with Example 6 @8 μg/ml (ABA UFR156; with Example 6 @8 μg/ml): 8 µg/mL
